Source: US11034839B2, “Compounds, linked with haptens, for the detection of senescent cells” (THE UNIVERSITY OF MANCHESTER, priority 2016, dated 2021)

Test system: senescent cells in U2OS hCdt1 Tet-ON cell line, palbociclib-induced human melanoma xenograft mouse model, irradiated human breast tissue
Assay: Hybrid histo-/immunochemical assay (HIC) compared with SBB histochemical stain (HC)
Experimental: • 1. Compound (LG13) • 2. 100% ethanol (100% EtOH) • 3. Parafilm • 4. Fritted glass filter of medium porosity • 5. Airtight Dye Container 2.2.2 General Procedure: • 1. Dissolve 40 mg of the compound (LG13) in 7.4 ml 100% EtOH in a glass beaker and cover it with parafilm. • 2. Incubate at 56° C. in a waterbath for 120 min until the compound is completely dissolved. 2.3. General Method for Compound (LG13) Staining 2.3.1 Materials: • 1. Xylene • 2. […] Syringe • 4. 13 mm filter, membrane 0.22 μm • 5. Soft paper (dry or dipped in ethanol) • 6. Anti-biotin antibody ([Hyb-8] ab201341, Abcam) • 7. Ultravision Quanto Detection System HRP DAB kit (Cat no: TL-125-QHD) • 8. Glycerol (Sigma-Aldrich) • 9. Tris Buffered Saline (TBS; 10×): 1.5 M NaCl, 0.1 M Tris-HCl, pH 7.4. Store at 4° C. • 10. 0.5% Triton X/TBS: 0.5 ml Triton X diluted in 99.5 ml TBS • 11. Mounting media Glycergel (DakoCytomation). • 12. Light Microscope • 13. Anti-p21^WAF1/Cip1 mouse primary antibody [(F-5)(sc-6246) Santa-Cruz] • 14. […] Fluorescence microscope 2.3.2 General Procedures: 2.3.2.1 General Staining Protocol for Cells Mounted on Coverslips • 1. […] The staining reaction is monitored under the light microscope until detection of the signal (average time 5-8 min). • 8. […] The staining reaction is monitored under the light microscope until detection of the dark brown signal (average time 30 sec-1 min) at RT 1. • 20. […]

## CC1(COC(=O)CCCC[C@H]2SC[C@H]3NC(=O)N[C@H]32)Nc2cccc3c(/N=N/c4ccc(/N=N/c5ccccc5)c5ccccc45)ccc(c23)N1 (stereo partly drawn) [LG13, (2-methyl-6-((E)-(4-((E)-phenyldiazenyl)naphthalen-1-yl)diazenyl)-2,3-dihydro-1H-perimidin-2-yl)methyl 5-((3aR,4R,6aS)-2-oxohexahydro-1H-thieno[3,4-d]imidazol-4-yl)pentanoate]
U2OS hCdt1 Tet-ON, palbociclib melanoma xenograft, irradiated human breast tissue, FIG. 14 ai, bi, ci
  IHC staining relative to SBB HC staining: superiority
Additional cellular systems, mouse models, human clinical samples, FIG. 14 aii, bii, cii
  senescence detection using the HIC assay: sensitive senescence detection
